Data reported in US20260137671A1, “PDK4 as a Cell-Aging Intervention Target and Its Use in Chemotherapy and Anticancer” (Shanghai Institute of Nutrition and Health, Chinese Academy …, priority 2022, published 2026).
Values belong to the molecule of their own block, whether it stands above or below them.

How the values were obtained:
[1] = tested on: MDA-MB-231 breast cancer cells xenografted together with HBF1203 breast stromal cells; assay: MDA-MB-231/HBF1203 xenograft, tumor end volume after chemotherapy and/or PDK4-IN; assay type: in vivo, SCID mice; conditions: DTX 1.0 mg/kg with PDK4-IN; FIG. 73
Procedure: All experimental mouse experiments were carried out in strict accordance with the relevant regulations of the Institutional Animal Care and Use Committee (IACUC), Shanghai Institutes for Biological Sciences, Chinese Academy of Sciences. Immuno-deficient mice ICR SCID mice (body weight about 25 g) aged about 6 weeks were used for animal experiments related to the present disclosure. Stromal cells PSC27 and epithelial cells were mixed at a ratio of 1:4, and each graft contained 1.25×10^6 cells for tissue remodeling. The xenograft tumors were implanted into mice by subcutaneous transplantation, and the animals were euthanized 8 weeks after the end of the transplantation surgery. Tumor volume was calculated according to the following formula: V=(π/6)×(([…])/2)^3 (V, volume; 1, length; w, width).
For pre-clinical chemotherapeutic studies, mice received subcutaneous implantation were given standard laboratory diets. […] The time points were on the first day of the third, fifth and seventh weeks, with a total of 3 cycles of treatment, and each cycle lasted for 2 weeks. After the course of treatment, mouse […] were collected for tumor measurement and histological analysis. […] In order to cause systemic expression of SASP factors induced by chemotherapy, MIT was administered to mice through intravenous infusion according to the above steps and sequence, but the dose was reduced to 0.1 mg/kg body weight/each time (the cumulative dose of MIT received in the whole course of treatment was 0.3 mg/kg body weight) to reduce drug-related toxicity. The chemotherapy experiment ended at the end of the 8th week, and the mice were dissected immediately after sacrifice, and the xenograft tumors were collected and used for pathological system analysis.
To assess the in vivo effects of chemotherapeutic drugs and/or PDK4-IN treatment in different tumor types, the inventors subsequently generated xenografts composed of breast cancer cell line MDA-MB-231 and breast stromal cell line HBF1203 to replicate the preclinical intervention observed in prostate cancer xenografts.

HTR2B = biological target: T1, HTR2B (Homo sapiens, UniProt P41595); assay: Malignant phenotype of HTR2B-transduced PCa lines with HTR2B antagonist; assay type: cell-based; conditions: PCa lines PC3, DU145, M12; antagonist applied under culture conditions
T1 construct: expressed in transfected cells; host or cells: PCa cell lines (PC3, DU145, M12)
T1 sequence (P41595 whole entry): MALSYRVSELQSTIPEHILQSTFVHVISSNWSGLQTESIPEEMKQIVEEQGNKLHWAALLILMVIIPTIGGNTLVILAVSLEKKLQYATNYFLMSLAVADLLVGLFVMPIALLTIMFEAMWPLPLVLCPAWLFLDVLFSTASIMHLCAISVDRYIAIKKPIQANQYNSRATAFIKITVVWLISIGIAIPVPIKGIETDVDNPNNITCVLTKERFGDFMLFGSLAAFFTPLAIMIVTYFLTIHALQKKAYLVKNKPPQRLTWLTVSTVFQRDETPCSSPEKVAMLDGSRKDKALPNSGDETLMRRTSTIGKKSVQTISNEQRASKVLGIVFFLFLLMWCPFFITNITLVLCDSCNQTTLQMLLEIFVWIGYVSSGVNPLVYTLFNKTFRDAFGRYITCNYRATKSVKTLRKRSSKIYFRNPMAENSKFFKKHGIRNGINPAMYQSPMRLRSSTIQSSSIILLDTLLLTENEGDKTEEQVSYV
Source text: FIG. 59. Left, appraisal of the proliferation capacity of PCa lines under different conditions. As the experimental group, human HTR2B was transduced into each PCa cell line, and LY 266097 was used in the culture medium as a control for drug treatment. Middle, measurement of the migration ability of PCa lines under different conditions, with cells treated similarly as described above. Right, measurement of the migration ability of PCa lines under different conditions, with cells treated similarly as described above.
(§1) After PSC27 cells were cultured in DMEM+0.5% FBS medium for 3 days, then the cell population was washed thoroughly with 1×PBS. After a simple centrifugation, the supernatant was collected as conditioned medium, stored at −80° C. or used directly. Prostate epithelial cells are subjected to in vitro experiments during continuous culture in this conditioned medium for 3 days. For chemotherapy resistance, epithelial cell lines were cultured either in low-serum DMEM (0.5% FBS) (referred to as “DMEM”) or in conditioned medium. Simultaneously, mitoxantrone (MIT) was used to treat cells for 1 to 3 days at concentrations close to the IC50 values for each cell line, followed by observation under a bright-field microscope.
More importantly, the transduction of HTR2B enhanced resistance of PCa cells to mitoxantrone (MIT). […]

[2] = tested on: PC3 cells xenografted together with PSC27 cells; assay: PC3/PSC27 xenograft, tumor end volume after chemotherapy and/or PDK4-IN; assay type: in vivo, SCID mice; conditions: MIT alone, 0.2 mg/kg i.p., first day of weeks 3, 5, 7; end of 8-week regimen
Procedure: All experimental mouse experiments were carried out in strict accordance with the relevant regulations of the Institutional Animal Care and Use Committee (IACUC), Shanghai Institutes for Biological Sciences, Chinese Academy of Sciences. Immuno-deficient mice ICR SCID mice (body weight about 25 g) aged about 6 weeks were used for animal experiments related to the present disclosure. Stromal cells PSC27 and epithelial cells were mixed at a ratio of 1:4, and each graft contained 1.25×10^6 cells for tissue remodeling. The xenograft tumors were implanted into mice by subcutaneous transplantation, and the animals were euthanized 8 weeks after the end of the transplantation surgery. […] For pre-clinical chemotherapeutic studies, mice received subcutaneous implantation were given standard laboratory diets. […] The time points were on the first day of the third, fifth and seventh weeks, with a total of 3 cycles of treatment, and each cycle lasted for 2 weeks. After the course of treatment, mouse […] were collected for tumor measurement and histological analysis. […] The chemotherapy experiment ended at the end of the 8th week, and the mice were dissected immediately after sacrifice, and the xenograft tumors were collected and used for pathological system analysis. To closely mimic clinical conditions involving chemotherapeutic drugs, the inventors designed a preclinical regimen incorporating a genotoxic drug (MIT) and/or the PDK4 inhibitor (PDK4-IN) (FIG. 63).

PC3 = assay: MIT-based viability assay of PC3; assay type: cell-based, human; conditions: PC3, range of concentrations of MIT
Procedure: FIG. 61. Dose-response curves (non-linear regression/curve fit) plotted from MIT-based viability assays of PC3 exposed to the CM of PSC27-PDK4 cells and treated by a range of concentrations of MIT.
as §1

[3] = tested on: tumor tissues of mice (PC3/PSC27 xenografts); assay: In vivo cellular senescence and SASP expression in xenograft tumors (LCM transcripts, SA-β-Gal staining); set-up: species or system SCID mice; conditions: histological staining, FIG. 68
Source text: (§2) FIG. 66. Transcript assessment of several canonical SASP factors expressed in stromal cells isolated from tumors in SCID mice. LCM isolation, total RNA preparation and expression assays on tissues from animals with simultaneously implanted stromal cells and cancer cells. Note that the group measured as of the lowest value was used as normalization baseline per factor.
as §2, with “67.” for “66.”, “individual” for “several”, “factors (AREG), aging markers (p16/p21) and PDK4” for “factors”
FIG. 68. Representative IHC images of SA-β-Gal staining chromatograms from tissues isolated from animals subjected to placebo or drug treatments. Scale bar, 100 μm. Right, Comparative statistical analysis of SA-β-Gal staining for tissues in mice mentioned above.
Senescence-associated β-galactosidase (SA-β-Gal) staining was performed following a previously reported procedure (Debacq-Chainiaux et al., 2009). Briefly, cells in culture dishes were washed with PBS and fixed at room temperature. Cells were fixed in 2% formaldehyde and 0.2% glutaraldehyde for 3 minutes. SA-β-Gal was used for staining with freshly prepared staining solution overnight at 37° C. Images were taken on the next day and the percentage of positive cells per unit area was calculated.
For pre-clinical chemotherapeutic studies, mice received subcutaneous implantation were given standard laboratory diets. […] The time points were on the first day of the third, fifth and seventh weeks, with a total of 3 cycles of treatment, and each cycle lasted for 2 weeks. After the course of treatment, mouse […] were collected for tumor measurement and histological analysis. […]

[4] = tested on: cancer cells in tumors (PC3/PSC27 xenografts); assay: DNA damage and apoptosis in tumors by IHC (γ-H2AX, cleaved caspase 3); assay type: in vivo, SCID mice
Source text: FIG. 69. Statistical evaluating values of DNA-damaged cells and apoptotic cells in analyzed tumor specimens, represented as a percentage of cells positively stained by IHC with antibodies against γ-H2AX or caspase 3 (cleaved).
FIG. 70. Representative IHC images of caspase 3 (cleaved) in tumors at the end of therapeutic regimens. Biopsies of placebo-treated animals served as negative controls for drug-treated mice. Scale bar, 100 μm.
Considering the primary in vivo expressive results with MIT and/or PDK4-IN treatment, the inventors next asked how pharmacologically targeting PDK4 could enhance the therapeutic response of tumors. To disclose the possible mechanism(s), the inventors chose to dissect tumors from animals 7 days after initiation of treatment, a timepoint right before the development of resistant colonies.

SMILES: CC(=O)O[C@@]12CO[C@@H]1C[C@H](O)[C@@]1(C)C(=O)[C@H](O)C3=C(C)[C@@H](OC(=O)[C@H](O)[C@@H](NC(=O)OC(C)(C)C)c4ccccc4)C[C@@](O)([C@@H](OC(=O)c4ccccc4)[C@H]21)C3(C)C [docetaxel (DTX), docetaxel]
tumor regression by combination with PDK4-IN (non-genotoxic drug) [1]: unable to replicate the effects

HTR2B-conferred gain of proliferation, migration, invasion and resistance to MIT (HTR2B): generally lost
SMILES: COc1ccc(CC2NCCc3c2[nH]c2ccc(C)cc32)c(Cl)c1OC.Cl (stereo not shown) [LY 266097]

SMILES: O=C1c2c(O)ccc(O)c2C(=O)c2c(NCCNCCO)ccc(NCCNCCO)c21 [MIT, mitoxantrone]
tumor shrinkage (tumor volume reduction) [2]: 57.5%
survival curve of cancer cells under genotoxic stress (PC3): declined trend
SA-β-gal positivity in tumor tissues [3]: elevated SA-β-gal positivity
caspase 3 cleavage (IHC) ([4]; MIT administration alone): increased caspase 3 cleavage
DNA damage and apoptosis in cancer cells ([4]; tumors dissected 7 days after initiation of treatment, single agent): caused substantial DNA damage and apoptosis
